target: T1, hMrgpMRGPRX2 (Homo sapiens, UniProt Q96LB1); assay: FLIPR intracellular calcium mobilization, antagonist activity in recombinant hMrgpMRGPRX2 expressing cells; type: cell-based; details: read-out: Human MrgprX2 Antagonist pIC50 (converted)
T1 construct: expressed in transfected cells
T1 sequence (Q96LB1 1-330): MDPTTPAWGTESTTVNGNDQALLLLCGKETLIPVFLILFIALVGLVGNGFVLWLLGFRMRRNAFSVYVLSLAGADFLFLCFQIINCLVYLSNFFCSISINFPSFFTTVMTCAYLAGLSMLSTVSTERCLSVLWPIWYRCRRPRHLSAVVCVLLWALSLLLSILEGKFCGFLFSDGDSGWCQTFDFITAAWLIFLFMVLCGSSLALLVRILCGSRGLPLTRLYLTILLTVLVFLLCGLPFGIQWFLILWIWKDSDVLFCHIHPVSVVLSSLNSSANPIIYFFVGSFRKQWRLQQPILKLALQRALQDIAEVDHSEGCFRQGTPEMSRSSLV
How it was run: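 Antagonist activity was read as inhibition of intracellular calcium mobilization (FLIPR) in recombinant cells expressing human MrgprX2. Potency was also checked in LAD-2 human mast cells with endogenous receptor, and orthologue activity in cells expressing mouse MrgprB2, mouse MrgprA1, and gerbil, Chinese hamster and cynomolgus orthologues.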

For CC1(C)C(C(=O)Nc2ccc(-c3ccon3)cn2)C1(C)C [Compound E275, N-(5-isoxazol-3-yl-2-pyridyl)-2,2,3,3-tetramethyl-cyclopropanecarboxamide], which IC50 is on record?
Its IC50 is 12.3 nM.

How did the IC50 turn out when CC1(C)C(C(=O)Nc2ccc(C#N)cn2)C1(C)C [Compound E206] was run?
Its IC50 is 251 nM.

With CC1(C)C(C(=O)Nc2cc(Oc3ccc(F)nc3)ccn2)C1(C)C [Compound E148, N-[4-[(6-fluoro-3-pyridyl)oxy]-2-pyridyl]-2,2,3,3-tetramethyl-cyclopropanecarboxamide] as the compound, how does the IC50 read?
Its IC50 is 30.2 nM.

Which IC50 does the source give for O=C(NCC(O)C(F)(F)F)Nc1ccc(Oc2cc(F)cc(F)c2)cn1 (centres unmarked) [Compound E131] here?
The IC50 was 1000 nM.

How did the IC50 turn out when CCN(C[C@H](C)O)C(=O)Nc1cnc(Oc2cc(F)cc(F)c2)cn1 [Compound E235] was run?
The IC50 was 1410 nM.

With CCN(CC(C)(C)O)C(=O)Nc1ccc(Oc2ccc(F)c(F)c2)cn1 [Compound E112] as the compound, how does the IC50 read?
Its IC50 is 155 nM.

For CC1(C)C(C(=O)Nc2ccc(OCc3cncc(F)c3)cn2)C1(C)C [Compound E086], which IC50 is on record?
Its IC50 is 204 nM.

O=C(Nc1ccc(Oc2ccc(F)c(F)c2)cn1)C1CC1 [Compound E034] was tested. Which IC50 did it give?
The IC50 was 200 nM.

How did the IC50 turn out when CC1(C)C(C(=O)Nc2ccc(OC3CCOCC3)cn2)C1(C)C [Compound E085] was run?
Its IC50 is 1000 nM.

NS(=O)(=O)N1CCC[C@@H]1C(=O)Nc1ccc(Oc2cc(F)cc(F)c2)cn1 [Compound E279] was tested. Which IC50 did it give?
The IC50 was 240 nM.

CC1(C)CC1C(=O)Nc1ccc(-c2cc(F)cc(F)c2)cn1 (centres unmarked) [Compound E180] was tested. Which IC50 did it give?
Its IC50 is 12.6 nM.

N#CC1(C(=O)Nc2ccc(Oc3cc(F)cc(F)c3)cn2)CC1 [Compound E023] was tested. Which IC50 did it give?
Its IC50 is 3160 nM.

For CN(C[C@@H](O)C(F)(F)F)C(=O)Nc1cc(Oc2ccc(F)c(F)c2)ccn1 [Compound E152], which IC50 is on record?
The IC50 was 263 nM.

With CC1(C)C(C(=O)Nc2ccc(Oc3ccc(C#N)cc3F)cn2)C1(C)C [Compound E061] as the compound, how does the IC50 read?
Its IC50 is 20 nM.

Cn1cc(-c2ccc(NC(=O)C3C(C)(C)C3(C)C)nc2)cn1 [Compound E185] was tested. Which IC50 did it give?
The IC50 was 93.3 nM.

How did the IC50 turn out when O=C(Nc1ccc(Oc2ccc(F)c(F)c2)cn1)C1CCOCC1 [Compound E024] was run?
Its IC50 is 2000 nM.

CC1(C)CC1C(=O)Nc1cnc(-c2cc(F)cc(F)c2)cn1 (single isomer, unassigned) [Compound E231, N-[5-(3,5-difluorophenyl)pyrazin-2-yl]-2,2-dimethyl-cyclopropanecarboxamide] was tested. Which IC50 did it give?
Its IC50 is 102 nM.

For O=C(Nc1ccc(Oc2ccc(F)c(F)c2)cn1)C1CCCC1 [Compound E031], which IC50 is on record?
Its IC50 is 63.1 nM.

Which IC50 does the source give for CCN(C[C@@H](O)C(F)(F)F)C(=O)Nc1ccc(-c2cc(F)cc(F)c2)cn1 [Compound E194] here?
The IC50 was 214 nM.

Which IC50 does the source give for CC(C)C(=O)Nc1ccc(Oc2cc(F)cc(C#N)c2)cn1 [Compound E021] here?
The IC50 was 1580 nM.

CC1(C)C(C(=O)Nc2ccc(Oc3ccc(F)c(F)c3)cn2)C1(C)C [Compound E025] was tested. Which IC50 did it give?
Its IC50 is 2.51 nM.

How did the IC50 turn out when CCN(C[C@@H](O)C(F)(F)F)C(=O)Nc1cnc(OCc2cccc(F)c2)cn1 [Compound E262] was run?
The IC50 was 676 nM.

For CC1(C)C(C(=O)Nc2ccc(OCCO)cn2)C1(C)C [Compound E082, N[5-(2-hydroxyethoxy)pyridin-2-yl]-2,2,3,3-tetramethylcyclopropane-l-carboxamide], which IC50 is on record?
The IC50 was 4370 nM.

How did the IC50 turn out when CC1(C)C(C(=O)Nc2ccc(-c3cn[nH]c3)cn2)C1(C)C [Compound E175] was run?
The IC50 was 2510 nM.

For CCN(C[C@@H](O)C(F)(F)F)C(=O)Nc1cnc(Oc2cccc(F)c2)cn1 [Compound E247], which IC50 is on record?
The IC50 was 302 nM.

With C[C@H](O)CN(C)C(=O)Nc1ccc(Oc2cccc(F)c2)cn1 [Compound E103] as the compound, how does the IC50 read?
The IC50 was 1580 nM.

With CC1(C)C(C(=O)Nc2ccc(-c3ncco3)cn2)C1(C)C [Compound E198, 2,2,3,3-tetramethyl-N-(5-oxazol-2-yl-2-pyridyl)cyclopropanecarboxamide] as the compound, how does the IC50 read?
Its IC50 is 33.9 nM.

Which IC50 does the source give for CC1(C)C(C(=O)Nc2ccc(C(F)(F)F)cn2)C1(C)C [Compound E205] here?
Its IC50 is 501 nM.

For CCN(C[C@@H](O)C(F)(F)F)C(=O)Nc1ccc(Oc2cc(F)ccc2F)cn1 [Compound E123], which IC50 is on record?
Its IC50 is 3.39 nM.

Which IC50 does the source give for CC1(C)C(C(=O)Nc2cc(Oc3cncc(F)c3)ccn2)C1(C)C [Compound E147, N-[4-[(5-fluoro-3-pyridyl)oxy]-2-pyridyl]-2,2,3,3-tetramethyl-cyclopropanecarboxamide] here?
Its IC50 is 7.94 nM.

With O=C(Nc1ccc(Oc2ccc(F)c(F)c2)cn1)[C@@H]1CCCO1 [Compound E055] as the compound, how does the IC50 read?
The IC50 was 6310 nM.

For CC(C)C(=O)Nc1ccc(Oc2ccccc2F)cn1 [Compound E005], which IC50 is on record?
Its IC50 is 79.4 nM.

For CC(C)C(=O)Nc1ccc(-c2cccc(F)c2)cn1 [Compound E166], which IC50 is on record?
Its IC50 is 63.1 nM.

O=C(Nc1ccc(Oc2ccc(F)c(F)c2)cn1)C1CC12CC2 (centres unmarked) [Compound E044] was tested. Which IC50 did it give?
Its IC50 is 12.6 nM.

Which IC50 does the source give for CCN(C[C@@H](O)C(F)(F)F)C(=O)Nc1cnc(Oc2ccccc2F)cn1 [Compound E248] here?
The IC50 was 8.51 nM.

How did the IC50 turn out when CC1(C)CC1C(=O)Nc1ccc(Oc2ccnc(F)c2)cn1 (centres unmarked) [Compound E072] was run?
The IC50 was 1910 nM.

With CC1(C)C[C@@H]1C(=O)Nc1ccc(Oc2ccc(F)c(F)c2)cn1 [Compound E043] as the compound, how does the IC50 read?
The IC50 was 3.98 nM.

For CC1(C)C(C(=O)Nc2ccc(N3CCCC3)cn2)C1(C)C [Compound E097], which IC50 is on record?
The IC50 was 2.51 nM.

For CC(C)C(=O)Nc1ccc(Nc2ccccc2)cn1 [Compound E094, N-(5-anilino-2-pyridyl)-2-methyl-propanamide], which IC50 is on record?
The IC50 was 3980 nM.

For C[C@H](C(=O)Nc1ccccn1)c1ccccc1 [Compound E209], which IC50 is on record?
The IC50 was 2510 nM.

For CC1(C)C(C(=O)Nc2cc(N3CCCC3)ccn2)C1(C)C [Compound E146, 2,2,3,3-tetramethyl-N-(4-pyrrolidin-1-yl-2-pyridyl)cyclopropanecarboxamide], which IC50 is on record?
Its IC50 is 7940 nM.

How did the IC50 turn out when COCC(C)(C)C(=O)Nc1ccc(Oc2ccc(F)c(F)c2)cn1 [Compound E040] was run?
The IC50 was 501 nM.

For CN(C[C@@H](O)C(F)(F)F)C(=O)Nc1cnc(Oc2cccc(F)c2F)cn1 [Compound E243], which IC50 is on record?
Its IC50 is 58.9 nM.

How did the IC50 turn out when CC1(C)C(C(=O)Nc2cc(C(=O)NCC(F)(F)F)ccn2)C1(C)C [Compound E269, 2-[(2,2,3,3-tetramethylcyclopropanecarbonyl)amino]-N-(2,2,2-trifluoroethyl)pyridine-4-carboxamide] was run?
The IC50 was 3160 nM.

Which IC50 does the source give for CC1(C)C(C(=O)Nc2ccc(Oc3ccnc(F)c3)cn2)C1(C)C [Compound E060] here?
Its IC50 is 3.16 nM.

For CCN(C[C@@H](O)C(F)(F)F)C(=O)Nc1cc(Oc2cncc(F)c2)ccn1 [Compound E162, 1-ethyl-3-[4-[(5-fluoro-3-pyridyl)oxy]-2-pyridyl]-1-[(2R)-3,3,3-trifluoro-2-hydroxy-propyl]urea], which IC50 is on record?
The IC50 was 19.1 nM.

CC(C)(O)COc1ccc(NC(=O)C2C(C)(C)C2(C)C)nc1 [Compound E080, N-[5-(2-hydroxy-2-methyl-propoxy)-2-pyridyl]-2,2,3,3-tetramethyl-cyclopropanecarboxamide] was tested. Which IC50 did it give?
Its IC50 is 4370 nM.

CC1(C)CC1C(=O)Nc1ccc(N2CCCC2)cn1 (centres unmarked) [Compound E098] was tested. Which IC50 did it give?
Its IC50 is 87.1 nM.

With CC1(C)C(C(=O)Nc2ccc(-c3cnco3)cn2)C1(C)C [Compound E273, 2,2,3,3-tetramethyl-N-(5-oxazol-5-yl-2-pyridyl)cyclopropanecarboxamide] as the compound, how does the IC50 read?
Its IC50 is 661 nM.

For CCN(C[C@@H](O)C(F)(F)F)C(=O)Nc1ccc(-n2cccn2)cn1 [Compound E142, 1-ethyl-3-(5-pyrazol-1-yl-2-pyridyl)-1-[(2R)-3,3,3-trifluoro-2-hydroxy-propyl]urea], which IC50 is on record?
Its IC50 is 8710 nM.

Source: patent publication US20230027929A1, “MrgprX2 Antagonists and Uses Thereof” (Dermira, Inc., priority 2019, published 2023)
